Reference: patent US4713369A, “Oligopeptidylargininol derivatives and their homologs, a process for their preparation, their use and agents containing them” (Behringwerke Aktiengellschaft, priority 1985, dated 1987)
Read-outs that look alike come from different tables or passages of the source. Blank lines part the entries; values can stand above or below the compound they belong to.

What was measured:
[1] = test system: spermatozoal endoprotease acrosin; conditions: results of Borin et al., Hoppe-Seyler's Z. Physiol. Chem. 362, 1435-1445, 1981; cited from earlier work
[2] = molecular target: human α-thrombin (Homo sapiens, UniProt P00734)
Procedure: Test procedure: 700 μl of tris buffer, pH 8.2, are incubated with 100 μl of human α-thrombin (0.28 UI) and 100 μl of inhibitor solution at 37° C. for 5 min. After addition of 100 μl of Tos-Gly-Pip-Arg paranitroanilide (c×3 mMol/l), the extinction at 405 nm is measured.

[3] = molecular target: plasmin (Homo sapiens, UniProt P00747); experiment: Inhibitory action against plasmin, analogous procedure (substrate D-norvalylcyclohexylalanylarginyl paranitroanilide); assay type: biochemical; conditions: final inhibitor concentration 0.6 mmol/1
From the text: (plasmin substrate: D-norvalylcyclohexylalanylarginyl paranitroanilide (c=3 mmol/l)).

[4] = molecular target: F Xa (Homo sapiens, UniProt P00742); experiment: Inhibitory action against F Xa, analogous procedure (substrate Bzl-Ile-Glu-Gly-Arg pNA); assay type: biochemical; conditions: final inhibitor concentration 0.6 mmol/1
From the text: F Xa substrate: Bzl-Ile-Glu-Gly-Arg pNA (50% of the Glu as the methyl ester) (c=3 mmol/liter)

Chain of F Xa (P00742 235-488 limits assumed): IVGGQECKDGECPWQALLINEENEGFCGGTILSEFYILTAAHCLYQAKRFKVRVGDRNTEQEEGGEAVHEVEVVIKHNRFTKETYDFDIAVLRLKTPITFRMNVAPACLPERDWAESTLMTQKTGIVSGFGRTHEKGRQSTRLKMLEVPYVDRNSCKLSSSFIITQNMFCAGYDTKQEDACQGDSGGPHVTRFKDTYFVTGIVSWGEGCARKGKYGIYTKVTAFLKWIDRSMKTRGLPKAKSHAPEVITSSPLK
Chain of F Xa (P00742 41-179 partner limits assumed): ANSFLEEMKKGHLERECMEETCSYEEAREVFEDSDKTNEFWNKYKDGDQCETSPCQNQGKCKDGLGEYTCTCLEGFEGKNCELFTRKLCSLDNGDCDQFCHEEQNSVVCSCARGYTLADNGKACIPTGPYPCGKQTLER
Chain of plasmin (P00747 581-810 limits assumed, species assumed): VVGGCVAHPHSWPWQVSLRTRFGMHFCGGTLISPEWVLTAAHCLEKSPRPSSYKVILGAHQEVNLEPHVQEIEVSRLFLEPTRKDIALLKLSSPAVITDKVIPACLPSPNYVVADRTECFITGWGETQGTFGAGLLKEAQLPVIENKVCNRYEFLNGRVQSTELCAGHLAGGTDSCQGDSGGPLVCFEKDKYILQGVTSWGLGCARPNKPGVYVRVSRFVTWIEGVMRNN
Chain of plasmin (P00747 97-580 partner limits assumed, species assumed): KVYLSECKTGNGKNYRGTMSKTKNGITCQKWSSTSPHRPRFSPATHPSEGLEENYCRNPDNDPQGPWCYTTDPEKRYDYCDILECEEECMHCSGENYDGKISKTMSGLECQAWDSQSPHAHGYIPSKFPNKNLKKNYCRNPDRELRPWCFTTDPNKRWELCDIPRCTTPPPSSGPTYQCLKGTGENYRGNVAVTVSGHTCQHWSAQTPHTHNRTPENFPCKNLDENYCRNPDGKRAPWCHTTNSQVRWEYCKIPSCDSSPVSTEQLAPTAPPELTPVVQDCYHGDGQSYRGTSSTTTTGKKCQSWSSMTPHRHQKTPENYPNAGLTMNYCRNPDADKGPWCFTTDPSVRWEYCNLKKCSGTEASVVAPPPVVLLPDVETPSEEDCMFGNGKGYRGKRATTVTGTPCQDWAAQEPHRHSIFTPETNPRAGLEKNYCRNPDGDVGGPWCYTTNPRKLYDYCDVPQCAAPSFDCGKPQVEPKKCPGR

SMILES: CC(=O)O.CC(C)C[C@H](NC(=O)OC(C)(C)C)C(=O)N[C@@H](CC(C)C)C(=O)N[C@H](C=O)CCCNC(=N)N.O [Boc-Leu-Leu-argininal . acetic acid . H2 O]
inhibition of acrosin (in words) [1]: very active inhibitor

SMILES: Cl.Cl.NC(N)=NCCC[C@@H](COC(=O)c1ccc([N+](=O)[O-])cc1)NC(=O)[C@@H]1CCCN1C(=O)[C@H](N)Cc1ccccc1 [D-Phe-Pro-argininol-4-nitrobenzoate dihydrochloride]
inhibitory action on thrombin (in words) [2]: approximately corresponded to that of 4-carboxyethylphenylε-guanidinocaproate

Now from value to compound:

IC50 [2]: 3.65 ± 0.05 µM
SMILES: N=C(N)NCCCCCC(=O)Oc1ccc(CCC(=O)O)cc1 [4-carboxyethylphenyl ε-guanidinocaproate, reference compound]

action in the thrombin inhibition test, times less than that of H-D-Phe-Pro-Arg CH2 --OH ([2]; relative to H-D-Phe-Pro-Arg CH2 --OH): about 1,000 times
SMILES: CC(C)(C)OC(=O)N[C@H](Cc1ccccc1)C(=O)N1CCC[C@H]1C(=O)N[C@H](CO)CCCNC(=N)N [Boc-D-Phe-Pro-Arg CH2 --OH]

Plasmin inhibition [3]: 67 % inhibition
inhibitory action on thrombin (in words) [2]: potent inhibition of thrombin
inhibitory action on thrombin (in words) ([2]; listed as D-phenylalanyl-L-prolyl-L-argininol): especially strong
F X a inhibition [4]: 49 % inhibition
SMILES: N=C(N)NCCC[C@@H](CO)NC(=O)[C@@H]1CCCN1C(=O)[C@H](N)Cc1ccccc1.O=C(O)C(F)(F)F.O=C(O)C(F)(F)F [D-Phe-Pro-argininol ditrifluoroacetate, D-Phe-Pro-Arg-CH2 OH×2CF3 COOH]
